Experimental data published in patent US20030109537A1, “Methods and materials for treating bone conditions” (priority 2001, published 2003).

Tests used:
[1] = test system: rat model for parathyroid bone disease; test: Rat model for parathyroid bone disease: pulsatile vs continuous PTH, bone histomorphometry; format: in vivo; conditions: rats
PDGF-A mRNA = test: RNase protection assay of steady state mRNA levels; format: in vivo, rat
Procedure: Induction of parathyroid bone disease. Three month-old female Sprague-Dawley rats (Harlan Sprague-Dawley, Inc., Indianapolis, Ind.) were randomly divided into 3 groups, with 5 rats per group. In group 1 (pulsatile or intermittent PTH), each rat received 80 μg/kg/day human PTH (1-34) (hPTH) in vehicle (150 mM NaCl, 1 mM HCl and 2% heat-inactivated rat serum) by subcutaneous (s.c.) injection once daily for 7 days. In group 2 (vehicle), an osmotic pump (Alza Corp., Mountainview, Calif.) that delivered vehicle alone at a rate of 1 μl/hr for 7 days was implanted in each rat. In group 3 (continuous PTH), an osmotic pump that delivered 40 μg/kg/day hPTH at a rate of 1 μl/hr for 7 days was implanted in each rat. On day 8, all rats were anesthetized with ketamine (50 mg/kg): xylazine HCl (5 mg/kg) and sacrificed by decapitation. Both tibiae were removed from each rat. Right tibiae were fixed by immersion in 70% ethanol then processed for bone histology to verify the appearance of peritrabecular fibrosis. Left tibiae were frozen in liquid N2 and stored at −80° C. until processed for RNA isolation.
Isolation of RNA. Frozen proximal tibial metaphyses were individually homogenized in guanidine isothiocyanate using a Spex freezer mill (Industries, Inc., Edison, N.J.). Total RNA was extracted from the homogenate using a modified organic solvent method. See Chomczynski et al., Anal. Biochem., 162:156-159 (1987). Isolated RNA yields were determined spectrophotometrically at 260 nm using standard methods.
RNase protection assay. Steady state mRNA levels for PDGF-A and other growth factors were determined using an RNase protection assay kit according to the manufacturer's protocol (Pharmingen, San Diego, Calif.). Quantitation of protected RNA fragments was performed by PhosphoImager analyses and normalized to glyceraldehyde-3-phosphate dehydrogenase (GAPDH) and the ribosomal structural protein L32.
RNase protection assays were performed as described in Example 1, for PDGF-A, BMP-1, BMP-6, BMP-3, and TGF-β1 to verify the microarray data. […]

[2] = test system: PTH-induced marrow fibrosis and osteoclast resorption; test: Bone histomorphometry in rats given trapidil, continuous PTH or both; format: in vivo, rat
Procedure: (§1) Treatment protocol. Three month-old female Sprague-Dawley rats were divided into 4 groups. In group 1 (n=9), osmotic pumps that delivered vehicle alone at a rate of 1 μl/hr for 7 days were implanted in each rat. […] In groups 3 and 4 (n=8 and 10, respectively), osmotic pumps were implanted in each rat that delivered 40 μg/kg/day hPTH at a rate of 1 μl/hr for 7 days. […] Tetracycline (20 mg/kg, Sigma Chemical Co., St. Louis, Mo.) and calcein (20 mg/kg, Sigma) fluorochrome labels were injected at the base of the tail on day 0 (tetracycline) and day 6 (calcein). On day 8, all rats were anesthetized and blood was collected by cardiac puncture. The blood samples were used to determine serum chemistry and PTH levels. Following blood collection, the rats were sacrificed by cervical dislocation, and tibiae were surgically removed and fixed in 70% ethanol for bone histomorphometry.
Bone histomorphometry. Proximal metaphyses were dehydrated in a graded series of ethanol, then infiltrated and embedded in methymethacrylate (Fisher Scientific, Fair Lawn, N.J.). […] Dynamic histomorphometric cancellous bone measurements were made in the unstained sections using fluorescent microscopy to detect the injected tetracycline and calcein markers. After obtaining the cancellous bone measurements, consecutive sections were stained with toluidine blue for bone cell and peritrabecular fibrosis measurements using light microscopy. A standard sampling site of 2.8 mm was located in the secondary spongiosa of the metaphysis at 1.5 mm distal to the growth plate.
All histomorphometric measurements were made with an Osteomeasure image analysis system (OsteoMetrics, Atlanta, Ga.) coupled to a photomicroscope and personal computer. All parameters were calculated according to standardized nomenclature. See, for example, Parfitt et al., J. Bone Miner. […] Bone volume was defined as the percentage of tissue volume consisting of cancellous bone. Tetracycline and calcein labels were determined as the percentage of bone perimeter labeled with fluorochrome. Mineral apposition rate (MAR) was defined as the average width between tetracycline and calcein label divided by interlabel time of 6 days. Bone formation rate (BFR) was defined as the product of MAR and the calcein label perimeter, and was expressed per bone surface (BFR/BS), bone volume (BFR/BV), or tissue volume (BFR/TV). Osteoblast surface was defined as a palisade of large basophilic cuboidal cells directly lying on top of the osteoid, and was expressed as a percent of bone perimeter. Osteoclast surface was defined as the bone perimeter lined by multinucleated cells regardless of the presence of erosion. Fibrotic perimeter was defined as the bone perimeter lined by multilayers of fibroblasts.
Statistical analysis. Multiple group comparisons were determined using one-way analysis of variance (one-way ANOVA) with statistical significance at P<0.05. Differences between pairs of groups were compared by the Fisher's protected least significant difference post-hoc test.
(§2) Serum and bone samples were collected after 7 days and analyzed.

Serum chemistry and PTH = format: in vivo, rat; conditions: rats
Procedure: as §1
Serum chemistry and PTH. Total serum calcium, phosphate, and magnesium levels were measured in rat blood samples by Central Clinical Laboratory Research at the Mayo Clinic using automated procedures. Serum PTH was measured using an immunoradiometric assay for rat PTH (Immunotopics International, LLC, San Clementa, Calif.) that has approximately 100% cross-reactivity to human PTH.
as §2

[3] = continuous PTH 40 μg/kg/day osmotic pump 7 days
[4] = continuous PTH 40 μg/kg/day osmotic pump 7 days, vs untreated control
[5] = continuous PTH infusion 40 μg/kg/d
[6] = rat proximal tibial metaphysis cancellous bone, day 8, trapidil 40 mg/kg/day s.c., hPTH 40 μg/kg/day continuous, mean ± SEM
[7] = day 8, trapidil 40 mg/kg/day s.c. 7 days, hPTH 40 μg/kg/day continuous by osmotic pump 7 days, mean ± SEM

human PTH (1-34)
time to increase in 3H-proline incorporation into bone matrix proteins ([1]; PTH s.c. 80 μg/kg/d): ≤ 24 h | time to increase in the number of fully mature osteoblasts ([1]; PTH s.c. 80 μg/kg/d): ≤ 3 days | time to upregulation of mRNA levels for bone matrix proteins (type I collagen, osteonectin, osteocalcin) ([1]; PTH s.c. 80 μg/kg/d): ≤ 16 h | Marrow fibrosis [1, 3]: Extensive^b | Osteoid surface [1, 3]: Extensive^b | Bone formation rate [1, 4]: ↑^a | Osteoblast perimeter [1, 4]: ↑^a | Osteoclast perimeter [1, 4]: ↑^b | mRNA levels for one matrix proteins [1, 4]: ↑^a | detrimental skeletal effects of continuous PTH [1, 5]: extensive peritrabecular fibrosis, osteomalacia, increased bone formation, and focal bone resorption | systemic side effects on reducing the dose rate [1, 5]: greatly reduced systemic side effects | systemic effects of continuous release ([1]; hPTH infused continuously 80 μg/kg/d, s.c. osmotic pump): severe hypercalcemia and weight loss | daily PTH pulse duration at which detrimental side effects were observed ([1]; programmed implantable osmotic pump, same quantity of PTH): ≥ 2 h | Bone formation rate ([1]; pulsatile PTH 80 μg/kg/day s.c. once daily 7 days, vs untreated control): ↑^a | effect on serum calcium levels ([1]; subcutaneous PTH 80 μg/kg/d): no effect | PTH-induced regulation of mRNA levels for BMP-1, -3, and -6, as well as TGF-β (PDGF-A mRNA; RNase protection assay verifying microarray data): confirmed | increase in the mRNA levels for PDGF-A (PDGF-A mRNA; continuous PTH, rat tibial metaphysis, RNase protection assay, normalized to L32): 3.3 fold | effect on steady state mRNA levels for PDGF-A (PDGF-A mRNA; pulsatile PTH, rat tibial metaphysis, RNase protection assay): no effect | cancellous bone formation (per bone surface, bone volume, or tissue volume) ([2]; continuous PTH, rats): stimulated | osteoclast-lined surface (Oc.S/BS) ([2]; continuous PTH, rats, FIG. 2B): increased | peritrabecular fibrosis ([2]; continuous PTH, rats, FIG. 3): induced extensive peritrabecular fibrosis | osteoblast surface (Ob.S/BS) ([2]; continuous PTH, trapidil given with continuous PTH, FIG. 2A): increased | effect on cortical bone histomorphometry ([2]; fluorochrome-based analysis of tibial metaphyseal sections, rats): neither trapidil nor PTH treatment had any effect | BFR/BS (bone formation rate per bone surface) [2, 6]: 0.71 ± 0.10^ab μm^3/μm^2/day | BFR/BV (bone formation rate per bone volume) [2, 6]: 2.30 ± 0.31^ab % | BFR/TV (bone formation rate per tissue volume) [2, 6]: 0.63 ± 0.09^ab % | BV/TV (bone volume per tissue volume) [2, 6]: 27.25 ± 1.14% | Calcein label [2, 6]: 48.08 ± 5.35^ab % | MAR (mineral apposition rate) [2, 6]: 1.29 ± 0.08 μm/day | Tetracycline label [2, 6]: 5.65 ± 2.48% | serum chemistry effect of continuous PTH (Serum chemistry and PTH; continuous PTH 40 μg/kg/day 7 days): induced hypercalcemia and hyperparathyroidism | Serum Calcium (Serum chemistry and PTH; [7]): 11.65 ± 0.28^ab mg/dl | Serum Magnesium (Serum chemistry and PTH; [7]): 2.49 ± 0.04 mg/dL | Serum PTH (Serum chemistry and PTH; [7]): 98.27 ± 11.12^ab pg/ml | Serum Phosphorus (Serum chemistry and PTH; [7]): 7.95 ± 0.48 mg/dL
